Assay results published in patent publication US8946302B2, “Selective sigma-1 receptor ligands” (Wisconsin Alumni Research Foundation, priority 2008, dated 2015).
“And” between values parts separate entries of the source, which are not always exact repeats. Identical values can stand only once. Like-named read-outs stand apart in the source and are kept apart here. Marks after values point to notes of the source that are not given here.

Experiments:
sigma-1 receptor [1] = target: T1, sigma-1 receptor (Cavia porcellus, UniProt Q60492); assay: Competition assay against (+)-[3H]-pentazocine, trace amines; type: binding; design: from tissue; details: for sigma-2/sigma-1 Kd ratio: sigma-2 KD / sigma-1 KD
T1 sequence (Q60492 whole entry): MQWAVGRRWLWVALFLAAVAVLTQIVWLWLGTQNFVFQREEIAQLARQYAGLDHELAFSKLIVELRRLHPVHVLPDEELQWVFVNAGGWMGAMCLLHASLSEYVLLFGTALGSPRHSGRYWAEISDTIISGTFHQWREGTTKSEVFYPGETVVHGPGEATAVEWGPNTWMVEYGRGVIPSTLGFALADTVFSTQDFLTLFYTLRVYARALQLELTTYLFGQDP
Method: (§1) Competitive binding assays were performed as previously described (18) with the exception of testing new ligands shown in Table 4.

Kv 1.4 K+ channel = target: T2, Kv 1.4 K+ channel (Rattus norvegicus, UniProt P15385); assay: Whole cell patch clamp of Kv 1.4 K+ channel co-expressed with sigma-1 receptor in HEK-293 cells; type: cell-based
T2 construct: expressed in transfected cells; host or cells: HEK-293, transient, pIRES KvS1R plus pEGFP
T2 sequence (Q9R0C9 whole entry partner): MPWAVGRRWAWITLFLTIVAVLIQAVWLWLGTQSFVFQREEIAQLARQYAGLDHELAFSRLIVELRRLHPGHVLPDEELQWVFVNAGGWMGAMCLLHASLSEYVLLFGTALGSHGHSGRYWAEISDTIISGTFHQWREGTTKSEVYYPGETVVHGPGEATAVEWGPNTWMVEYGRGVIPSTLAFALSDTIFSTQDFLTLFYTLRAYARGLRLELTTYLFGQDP
T2 sequence (P15385 whole entry): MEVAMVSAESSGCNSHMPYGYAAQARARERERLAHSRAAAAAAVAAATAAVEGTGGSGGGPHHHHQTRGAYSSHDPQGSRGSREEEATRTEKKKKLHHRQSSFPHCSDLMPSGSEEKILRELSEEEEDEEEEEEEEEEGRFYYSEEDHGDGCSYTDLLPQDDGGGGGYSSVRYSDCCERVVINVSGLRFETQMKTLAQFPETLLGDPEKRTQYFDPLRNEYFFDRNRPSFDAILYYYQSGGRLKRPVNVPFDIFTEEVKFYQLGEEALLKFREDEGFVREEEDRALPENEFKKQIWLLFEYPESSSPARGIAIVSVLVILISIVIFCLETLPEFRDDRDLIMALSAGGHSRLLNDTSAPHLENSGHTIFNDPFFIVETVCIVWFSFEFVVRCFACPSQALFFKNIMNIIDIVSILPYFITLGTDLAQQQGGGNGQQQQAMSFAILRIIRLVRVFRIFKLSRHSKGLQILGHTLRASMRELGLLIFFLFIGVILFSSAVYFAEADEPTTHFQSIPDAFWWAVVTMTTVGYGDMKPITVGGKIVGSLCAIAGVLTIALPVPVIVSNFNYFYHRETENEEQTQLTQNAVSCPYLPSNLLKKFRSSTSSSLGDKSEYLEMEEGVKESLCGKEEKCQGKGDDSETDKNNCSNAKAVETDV
Method: After transfection (36-48 hours), whole cell K^+ currents were recorded from GFP positive HEK cells under voltage clamp using standard patch clamp techniques, using patch pipettes filled with (in mM) 120 KCl, 10 NaCl, 10 EGTA, 2 MgCl2, 2-4 MgATP, 0.3 NaGTP, 10 HEPES, pH 7.3.
The external solution was composed of (in mM) 130 NaCl, 4 KCl, 2 CaCl2, 1 MgCl2, 10 HEPES, pH 7.4 at room temperature (22-24° C.). Patch pipettes with resistances from 1-3 MΩ were fabricated from borosilicate glass (Garner Glass Co., CA). K^+ channels were activated by voltage step from −120 mV to 20 mV for 250 ms. Axopatch 200B, patch clamp amplifier interfaced to a PC running PCLAMP 7 (Axon Instruments) was used for data acquisition. Drugs were applied by a gravity feed system at a flow rate of 1-3 mL/minute. Series resistance compensation was used for cells with series resistance values higher than 10 MΩ. A 80-90% series resistance compensation was achieved on such cells.
K^+ currents were recorded using whole cell patch clamp technique.

[2] = target: T3, purified sigma-1 receptor (Cavia porcellus, UniProt Q60492); assay: Competitive displacement of [3H]-(+)-pentazocine at the pure sigma-1 receptor; type: binding, guinea pig; details: read-out: Ki Pure σ-1R
T3 construct: made in house; host or cells: E. coli BL21 DE3
T3 sequence (Q60492 whole entry): as the sequence (Q60492 whole entry) above
Method: A guinea pig sigma-1 receptor was purified as previously described (Ramachandran et al., Protein Expr. Purif., 2007. 51(2): 283-92). The pMal P2X plasmid (New England Biolabs) encoding the guinea pig sigma-1 receptor on the C-terminus of the E. coli Maltose Binding Protein was used for purification. The sigma-1 receptor on its C-terminus carried a hexa-histadine epitope tag. Protein was expressed in the E. coli strain BL21 DE3 (Novagen) with 0.6 mM IPTG. The E. coli pellet was sonicated and centrifuged at 100,000 g for 1 hour to separate the particulate and soluble fractions. The particulate fraction was extracted with Triton X-100, centrifuged and the extract was loaded onto an amylose resin (New England Biolabs, E-802). After washing the resin with buffer containing 0.5% Triton X-100, the MBP-sigma-1 receptor fusion protein was eluted with buffer containing 10 mM maltose.
The MBP-sigma-1-receptor fusion protein was cleaved with Factor Xa protease (Novagen) at room temperature for 24-48 hours and the cleavage was monitored with SDS-polyacrylamide gel electrophoresis. The sigma-1 receptor from the Factor Xa cleavage was purified with a HIS-Select HC Nickel affinity gel (Sigma-Aldrich P6611) in a batch format. The resin was washed with buffer containing 0.5% Triton X-100 detergent and the beads were separated by a brief centrifugation at 4000 rpm in a microcentrifuge. After washing to remove MBP, the pure sigma-1 receptor was eluted in buffer containing 250 mM imidazole.
To remove the undigested MBP-sigma-1 receptor fusion protein that is carried over in the Ni^2+ purification, the eluate from the Ni^2+ purification was incubated with Anti-MBP antibody conjugated to agarose (Vector Laboratories, Burlingame, Calif.) at 4° C. for 18-24 hours. The beads were separated by centrifugation and the supernatant contained the pure sigma-1 receptor.
Competition ligand binding to the pure sigma-1 receptor was performed as previously described. […] After incubation at 30° C. for 60 minutes, the reaction was terminated by rapid filtration through glass fiber filters (Whatman GF/B), using a Brandel cell harvester (Brandel, Gaithersburg, Md.). The glass fiber filters were pre-soaked in 0.5% polyethyleneimine (PEI) for at least 1 hour at room temperature (˜23° C.). Filters were washed 4 times with 4 mL of ice-cold 50 mM Tris-C1, pH 8.0. Radioactivity was quantified by liquid scintillation counting using a Packard model 1600 CA scintillation counter.

sigma-1 receptor [3] = target: T4, sigma-1 receptor (Rattus norvegicus, UniProt Q9R0C9); assay: Protection of [125I]-IACoc photolabeling in rat liver membranes; type: binding; details: even at 50 and 100 μM
T4 construct: from tissue; host or cells: rat liver membranes
T4 sequence (Q9R0C9 whole entry): as the sequence (Q9R0C9 whole entry partner) above
Method: (§3) Rat liver membranes (100 μg/lane) were suspended in the presence or absence of the protecting drugs. […] Percent band intensities are shown compared to controls performed in the absence of protecting ligand (−).

sigma-2 receptor [4] = target: T5, sigma-2 receptor (Rattus norvegicus, UniProt Q5U3Y7); assay: Sigma-2 receptor competitive binding, trace amines; design: from tissue; host or cells: liver membranes (rat inferred); details: read-out: Sigma-2R KD
T5 sequence (Q5U3Y7 1-176): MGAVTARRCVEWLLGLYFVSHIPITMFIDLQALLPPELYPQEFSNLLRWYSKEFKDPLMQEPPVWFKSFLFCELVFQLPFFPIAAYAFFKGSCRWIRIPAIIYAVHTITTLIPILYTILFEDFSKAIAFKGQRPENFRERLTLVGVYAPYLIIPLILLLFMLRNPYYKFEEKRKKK
Method: as §1

sigma-2 receptor [5] = target: T5, sigma-2 receptor; assay: Protection of [125I]IAF photolabeling of the sigma-2 receptor in rat liver membranes; type: binding; design: from tissue; host or cells: rat liver membranes
Method: as §3

MCP10A = assay: Cytotoxicity assay MCP10A; type: cell-based; details: Homo sapiens, HU Breast, read-out: IC50 (SE) growth inhibition
Method: (§2) Multi-plex cytotoxicity assays were performed by the Keck-UWCCC Small Molecule Screening Facility (Madison, Wis.). Specific methodology can be found online at http://hts.wisc.edu/Resources.htm#mpa.

HCT-45 = assay: Cytotoxicity assay HCT-45; type: cell-based; details: Homo sapiens, HU Colorectal, read-out: IC50 (SE) growth inhibition
Method: as §2

MCF7 = assay: Cytotoxicity assay MCF7; type: cell-based; details: Homo sapiens, HU Breast, read-out: IC50 (SE) growth inhibition
Method: as §2

sigma-1 receptor [6] = target: T1, sigma-1 receptor; design: from tissue; host or cells: guinea pig liver membranes; details: from Fontanilla et al. Biochemistry 2008; cited from earlier work
HT-29 = assay: Cytotoxicity assay HT-29; type: cell-based; details: Homo sapiens, HU Colorectal, read-out: IC50 (SE) growth inhibition
Method: as §2

SKOV-3 = assay: Cytotoxicity assay SKOV-3; type: cell-based; details: Homo sapiens, SK-OV-3, HU Ovarian, read-out: IC50 (SE) growth inhibition
Method: as §2

HI299 = assay: Cytotoxicity assay HI299; type: cell-based; details: Homo sapiens, HU Lung, read-out: IC50 (SE) growth inhibition
Method: as §2

A549 = assay: Cytotoxicity assay A549; type: cell-based; details: Homo sapiens, HU lung, read-out: IC50 (SE) growth inhibition
Method: as §2

sigma-2 receptor [7] = target: T5, sigma-2 receptor; design: from tissue; host or cells: rat liver membranes; details: from Fontanilla et al. Biochemistry 2008; cited from earlier work
NCI-H460 = assay: Cytotoxicity assay NCI-H460; type: cell-based; details: Homo sapiens, HU lung, read-out: IC50 (SE) growth inhibition
Method: as §2

SF268 = assay: Cytotoxicity assay SF268; type: cell-based; details: Homo sapiens, SF-268, HU CNS, read-out: IC50 (SE) growth inhibition
Method: as §2

MB-MDA-231 = assay: Cytotoxicity assay MB-MDA-231; type: cell-based; details: Homo sapiens, HU Breast, read-out: IC50 (SE) growth inhibition
Method: as §2

Du145 = assay: Cytotoxicity assay Du145; type: cell-based; details: Homo sapiens, DU-145, HU Prostate, read-out: IC50 (SE) growth inhibition
Method: as §2

tumor cell lines = assay: Cytotoxicity assays, various tumor cell lines (statements in words); type: cell-based, human
Method: Because sigma-1 receptors are overexpressed in numerous tumor cell lines, which include breast cancer, lung carcinoma, renal carcinoma, colon carcinoma, sarcoma, brain tumors, melanoma, glioblastoma, neuroblastoma, and prostate cancer, the ability of the compounds to inhibit the growth of various tumor cell lines were tested.
as §2

σ-1 Sites = target: T6, σ-1 Sites (Cavia porcellus, UniProt Q60492); assay: σ-1 sites radioligand binding, guinea pig liver membranes (Table 2); details: guinea pig liver membranes
T6 construct: from tissue
T6 sequence (Q60492 whole entry): as the sequence (Q60492 whole entry) above
Method: (§4) Assays for sigma-1 were performed using 10 nM (+)-[^3H]pentazocine in guinea pig liver homogenates (25 μg/well) incubated at 30° C. for 1 hour with several concentrations of competing ligands. After incubation, membranes were harvested on a 0.5% PEI-treated Whatman GF/B filters using a Brandel Cell Harvester. (+)-[^3H]pentazocine binding was determined by liquid scintillation counting. […] Serial concentrations of the compounds evaluated were added to the reactions for 45 minutes at 30° C. and the samples vacuum filtered through 0.5% polyethyleneimine (PEI) treated Whatman GF/B as described above to measure displacement of the radioligands from the sigma receptor subtypes.

σ-2 Sites = target: T7, σ-2 Sites (Rattus norvegicus, UniProt Q5U3Y7); assay: σ-2 sites radioligand binding, rat liver membranes (Table 2)
T7 construct: from tissue
T7 sequence (Q5U3Y7 1-176): T5 sequence (Q5U3Y7 1-176)
Method: as §4

sigma-2 receptor [8] = target: T5, sigma-2 receptor; assay: Sigma-2 competitive binding, [3H]-DTG with (+)-pentazocine, rat liver membranes (Example 6); design: from tissue; host or cells: rat liver membranes; details: rat liver membranes, n = 3; read-out: Sigma2 KD values
Method: (§5) Minced frozen rat livers or guinea pig livers (65 g) were thawed in 100 mL homogenization buffer (10 mM phosphate buffer pH 7.4 containing 0.32M sucrose, 1 M MgSO4, 0.5 M EGTA, 1 mM phenylmethylsulphonyl fluoride (PMSF), 10 μg/mlleupeptin, 1 μg/ml pepstatin A, 10 μg/ml p-toluenesulfonyl-L-arginine methyl ester (TAME) and then homogenized on ice with a Brinkman polytron homogenizer (setting 6, 4 bursts of 10 second each) followed by a glass homogenizer (Teflon pestle by 6 slow passes at 3,000 rpm). The homogenized tissues were then centrifuged at 17,000 g for 10 minutes. The supernatants were re-centrifuged at 100,000 g for 1 hour. The microsomal pellets were resuspended in homogenization buffer, snap frozen with dry ice-ethanol, and stored at −80° C. at a final protein concentration of 20 mg/mL.
as §4

sigma-1 receptor [9] = target: T1, sigma-1 receptor; assay: Sigma-1 competitive binding, (+)-[3H]pentazocine, guinea pig liver membranes (Example 6); design: from tissue; host or cells: guinea pig liver membranes;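 also: compounds tested over serial concentrations, 45 min incubation at 30 °C with membrane preparations, read-out is displacement of bound radioligand from the receptor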
Method: as §5, §4

Question: With `CN(C)CCc1ccccc1` [N,N′-dimethylPEA, N,N-dimethyl-2-phenylethylamine] as the molecule, how does the “sigma-2/sigma-1 Kd ratio” value (sigma-1 receptor [1]) read?
Answer: 1.642

Question: For `CCCCCCCN` [Heptylamine], which “average inhibition of Kv 1.4 K+ channel” value (Kv 1.4 K+ channel; concentrations up to 300 μM, HEK-293) is on record?
Answer: 15%

Question: And the Ki ([2]; [3H]-(+)-pentazocine 10 nM)?
Answer: 21.4 µM and 21 µM

Question: Which “protection of sigma-1 receptor [125I]-IACoc photolabeling” value (sigma-1 receptor [3]) does the source give for `NCCc1c[nH]c2ccccc12` [Tryptamine] here?
Answer: protected minimally

Question: What about the Kd (sigma-2 receptor [4]) of the same molecule?
Answer: 4.91 µM

Question: And the Kd (sigma-1 receptor [1])?
Answer: 432 µM

Question: What about the “protection of [125I]IAF sigma-2 receptor photolabeling” value (sigma-2 receptor [5]; 10 μM) of the same molecule?
Answer: 47%

Question: What about the “protection of [125I]IAF sigma-2 receptor photolabeling” value (sigma-2 receptor [5]; 50 μM) of the same molecule?
Answer: 78%

Question: What about the “protection of [125I]IAF sigma-2 receptor photolabeling” value (sigma-2 receptor [5]; 100 μM) of the same molecule?
Answer: 79%

Question: Which results are given for `CCCN(CCCc1ccc(F)cc1)CCc1ccc(N)cc1` [Compound 20, N-propyl-N-(4-aminophenyl-ethyl)-3-(4-fluorophenyl)propylamine]?
Answer: IC50 (MCP10A): > 100 µM; IC50 (HCT-45): > 100 µM; IC50 (MCF7): 41.3 µM; Kd (sigma-1 receptor [6]): 2.59 µM; Ratio (σ2/σ1) (sigma-1 receptor [6]): 0.046^c; IC50 (HT-29): > 100 µM; IC50 (SKOV-3): 20.2 µM; IC50 (HI299): > 100 µM; IC50 (A549): > 100 µM; Kd (sigma-2 receptor [7]): 0.12 µM; IC50 (NCI-H460): 44.8 µM; IC50 (SF268): > 100 µM; IC50 (MB-MDA-231): 86.1 µM; IC50 (Du145): > 100 µM

Question: Which melting point does the source give for `CCCCCCCCN(CCCCCCCC)C(=O)CCc1ccc(F)cc1` [Compound 4, N,N-Dioctyl-3-(4-fluorophenyl)propionamide] here?
Answer: 190 to 193 °C

Question: Which Kd (sigma-1 receptor [1]; (+)-[3H]-pentazocine 10 nM, read-out: Sigma-1R KD) does the source give for `NCCc1ccc(O)cc1` [Tyramine] here?
Answer: > 30000 µM

Question: With `CCCN(CCCc1ccc(F)cc1)CCc1ccc(N=[N+]=[N-])c(I)c1` [Compound 19] as the molecule, how does the IC50 (MCP10A) read?
Answer: 86.6 µM

Question: What about the IC50 (HCT-45) of the same molecule?
Answer: 54.1 µM

Question: What about the IC50 (MCF7) of the same molecule?
Answer: 16.8 µM

Question: And the Kd (sigma-1 receptor [6])?
Answer: 7.24 µM

Question: And the “Ratio (σ2/σ1)” value (sigma-1 receptor [6])?
Answer: 0.178^c

Question: What about the IC50 (HT-29) of the same molecule?
Answer: 36.4 µM

Question: What about the IC50 (SKOV-3) of the same molecule?
Answer: > 100 µM

Question: What about the IC50 (HI299) of the same molecule?
Answer: 90.8 µM

Question: And the “cytotoxicity / tumor cell growth inhibition” value (tumor cell lines)?
Answer: non-specifically cytotoxic in almost all the cell lines tested

Question: What about the IC50 (A549) of the same molecule?
Answer: > 100 µM

Question: And the Kd (sigma-2 receptor [7])?
Answer: 1.29 µM

Question: And the IC50 (NCI-H460)?
Answer: 40.3 µM

Question: What about the IC50 (SF268) of the same molecule?
Answer: 38.8 µM

Question: And the IC50 (MB-MDA-231)?
Answer: 21.6 µM

Question: What about the IC50 (Du145) of the same molecule?
Answer: 13.1 µM

Question: For `CNCCc1ccccc1` [N-methylPEA], which “sigma-2/sigma-1 Kd ratio” value (sigma-1 receptor [1]) is on record?
Answer: 0.366

Question: Which Ki (σ-1 Sites) does the source give for `CCCCCCCNCCCc1ccccc1` [Compound 1c, N-(3-Phenylpropyl)heptane-1-amine] here?
Answer: 0.015 µM

Question: And the EC50 (Kv 1.4 K+ channel; HEK-293 co-expressing sigma-1 receptor, read-out: EC50 for inhibition of the Kv 1.4 K+ channel)?
Answer: 10 µM

Question: And the Ki ([2]; [3H]-(+)-pentazocine)?
Answer: 0.0184 µM

Question: And the Ki (σ-2 Sites)?
Answer: 0.033 µM

Question: Which results are given for `CCCCN(CCCC)C(=O)CCc1ccc(F)cc1` [Compound 5, N,N-Dibutyl-3-(4-fluorophenyl)propionamide]?
Answer: melting point: 162 to 164 °C; Kd (sigma-2 receptor [8]): 126 µM; Ratio (σ2/σ1) (sigma-1 receptor [9]): 3.94; Kd (sigma-1 receptor [9]; guinea pig liver membranes, n = 3, read-out: Sigma 1 KD values): 32.1 µM
